Data reported in the supplement of paper PMC10307832.

Columns and labels:
Experiment in all cases: relative viability (nuclei count vs DMSO), 5 days (fraction); higher = more cells survive
[1] = compound: Cn1nnc2c(C(N)=O)ncn2c1=O [Temozolomide] + Nc1nc2[nH]cc(CCc3ccc(C(=O)N[C@@H](CCC(=O)O)C(=O)O)cc3)c2c(=O)[nH]1 [Pemetrexed] (partner 0.2 µM)
How it was run: (§1)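 Lung cancer cell lines in 1536-well plates were dosed by pin tool the day after seeding, either with one drug alone or with a fixed anchor-drug dose plus five library-drug doses (not always all listed) in √10 steps. After 5 days, cells were fixed and their nuclei stained in one step (final 0.05% Triton X-100, 1% formaldehyde, 1 ug/ml Hoechst), then counted on 4× images. Relative viability is the nuclei count in treated wells divided by that in vehicle wells. Values are medians of duplicate plates.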

[2] = compound: C[C@@H](C(=O)N[C@@H](C1CCCCC1)C(=O)N2CCC[C@H]2C(=O)N[C@@H]3[C@@H](CC4=CC=CC=C34)OCC#CC#CCO[C@@H]5CC6=CC=CC=C6[C@@H]5NC(=O)[C@@H]7CCCN7C(=O)[C@H](C8CCCCC8)NC(=O)[C@H](C)NC)NC [AZD5582] + Nc1nc2[nH]cc(CCc3ccc(C(=O)N[C@@H](CCC(=O)O)C(=O)O)cc3)c2c(=O)[nH]1 [Pemetrexed] (partner 0.2 µM)
How it was run: as §1

[3] = compound: Cn1nnc2c(C(N)=O)ncn2c1=O [Temozolomide] + COc1cc2c(Oc3ccc(NC(=O)C4(C(=O)Nc5ccc(F)cc5)CC4)cc3F)ccnc2cc1OCCCN1CCOCC1 [Foretinib] (partner 0.25 µM)
How it was run: as §1

[4] = compound: Cn1nnc2c(C(N)=O)ncn2c1=O [Temozolomide] + Cc1cc(Nc2cc(N3CCN(C)CC3)nc(Sc3ccc(NC(=O)C4CC4)cc3)n2)n[nH]1 [Tozasertib] (partner 0.1 µM)
How it was run: as §1

Row | Cell Line | relative viability ([1]; first compound 0.2 µM) | relative viability ([1]; first compound 0.6325 µM) | relative viability ([1]; first compound 2 µM) | relative viability ([1]; first compound 6.325 µM) | relative viability ([1]; first compound 20 µM) | relative viability ([2]; first compound 0.001581 µM) | relative viability ([2]; first compound 0.005 µM) | relative viability ([2]; first compound 0.01581 µM) | relative viability ([2]; first compound 0.05 µM) | relative viability ([3]; first compound 0.2 µM) | relative viability ([3]; first compound 0.6325 µM) | relative viability ([3]; first compound 2 µM) | relative viability ([3]; first compound 6.325 µM) | relative viability ([3]; first compound 20 µM) | relative viability ([4]; first compound 0.2 µM) | relative viability ([4]; first compound 0.6325 µM) | relative viability ([4]; first compound 2 µM) | relative viability ([4]; first compound 6.325 µM) | relative viability ([4]; first compound 20 µM)
1 | NCI-H1993 | 0.517 | 0.669 | 0.598 | 0.569 | 0.525 | 0.495 | 0.527 | 0.561 | 0.679 | 0.81 | 0.722 | 0.807 | 0.72 | 0.672 | 0.566 | 0.618 | 0.616 | 0.577 | 0.639
2 | BEN | 0.801 | 0.92 | 0.936 | 0.741 | 0.841 | 0.663 | 0.723 | 0.925 | 0.759 | 0.734 | 0.651 | 0.803 | 0.517 | 0.428 | 0.465 | 0.5 | 0.415 | 0.526 | 0.436
3 | NCI-H2009 | 1.08 | 1.06 | 1.05 | 1.08 | 1.04 | 1 | 1.01 | 1.03 | 1.08 | 1.23 | 1.21 | 1.24 | 1.2 | 1.3 | 0.821 | 0.722 | 0.766 | 0.762 | 0.735
